Broadly, the IC50 is the concentration that gives 50% inhibition.

These results are taken from patent publication US6818767B2, “Quinoline derivatives” (Hoffmann-La Roche Inc., priority 2001, dated 2004).

This experiment concerns the target T1, mouse NPY5-receptor (mNPY5) (Mus musculus, UniProt O70342).
T1 construct: The full-length cDNA encoding the mouse NPY5 (mNPY5) receptor was amplified from mouse brain cDNA; expressed in transfected cells; membrane preparation
T1 sequence (O70342 1-466): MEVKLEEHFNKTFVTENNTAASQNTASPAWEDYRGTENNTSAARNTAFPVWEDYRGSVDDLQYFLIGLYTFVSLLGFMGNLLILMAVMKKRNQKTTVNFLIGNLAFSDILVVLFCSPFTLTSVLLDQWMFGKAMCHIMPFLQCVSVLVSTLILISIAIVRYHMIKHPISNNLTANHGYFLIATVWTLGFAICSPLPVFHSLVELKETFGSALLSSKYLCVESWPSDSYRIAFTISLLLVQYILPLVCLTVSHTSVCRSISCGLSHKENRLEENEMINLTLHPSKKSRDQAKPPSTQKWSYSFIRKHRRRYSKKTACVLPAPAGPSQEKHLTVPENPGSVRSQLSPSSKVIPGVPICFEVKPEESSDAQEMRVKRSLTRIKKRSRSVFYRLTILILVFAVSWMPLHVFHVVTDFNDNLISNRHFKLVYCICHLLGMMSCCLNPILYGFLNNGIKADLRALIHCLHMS
Nature of the experiment: Radioligand competition binding. The note with it: displacement of 100 pM [125I]labelled peptide YY, membranes of HEK293 cells expressing recombinant mNPY5, 1 h at 22° C.; read-out: NPY5-R (mouse) IC50. From the text:
The full-length cDNA encoding the mouse NPY5 (mNPY5) receptor was amplified from mouse brain cDNA using specific primers, designed based on the published sequence, and Pfu DNA-Polymerase (Stratagene). The amplification product was subcloned into the mammalian expression vector pcDNA3 using Eco RI and XhoI restriction sites. Positive clones were sequenced and one clone, encoding the published sequence was selected for generation of stable cell clones.
Human embryonic kidney 293 (HEK293) cells were transfected with 10 μg mNPY5 DNA using the lipofectamine reagent (Gibco BRL) according to the manufacturer's instruction. Two days after transfection, geneticin selection (1 mg/ml) was initiated and several stable clones were isolated. One clone was further used for pharmacological characterization.
Human embryonic kidney 293 cells (HEK293), expressing recombinant mouse NPY5-receptor (mNPY5) were broken by three freeze/thawing cycles in hypotonic Tris buffer (5 mM, pH 7.4, 1 mM MgCl2), homogenized and centrifuged at 72,000×g for 15 min. The pellet was washed twice with 75 mM Tris buffer, pH 7.4, containing 25 mM MgCl2 and 250 mM sucrose, 0.1 mM phenylmethylsulfonylfluoride and 0.1 mM 1,10-pheneanthrolin, resuspended in the same buffer and stored in aliquots at −80° C. Protein was determined according to the method of Lowry using bovine serum albumine (BSA) as a standard. […]
(In general: Displacement assays read how much labelled ligand stays bound in the presence of the test substance.)

For the compound `Cc1cc(N2CCCC2)c2ccc(OCC3CC3)cc2n1` [Example 5, 7-cyclopropylmethoxy-2-methyl-4-pyrrolidin-1-yl-quinoline], the IC50 came out at 0.027 µM.

Take `CCCCc1cc2c(N3CCCC3)ccnc2cc1O` [Example 34, 6-butyl-4-pyrrolidin-1-yl-quinolin-7-ol]: the IC50 is 0.0099 µM.
